Measured values taken from article PMC8348310, “Antioxidants Isolated from Elaeagnus umbellata (Thunb.) Protect against Bacterial Infections and Diabetes in Streptozotocin-Induced Diabetic Rat Model” (Molecules, 2021).
Several values for one entry are separate records, joined by “and”; a condition that tells them apart may be missing. Identical values can stand only once.

Experiments:
[1] = system: Salmonella typhi; assay: Agar well diffusion, zone of inhibition; assay type: cell-based; settings: 24 h; for zone of inhibition at 100 µg/mL: Salmonella enterica, TYPHI; for Zone of Inhibition: Salmonella typhi, 100 µg/mL, 37 °C
[2] = molecular target: T1, Type-VI α-amylase (porcine pancreas) (Sus scrofa, UniProt P00690); assay: In vitro α-amylase inhibition assay (DNSA); assay type: biochemical; settings: for inhibition at 31.05 µg/mL / inhibition at 62.5 µg/mL / inhibition at 125 µg/mL / inhibition at 250 µg/mL / inhibition at 500 µg/mL / inhibition at 1000 µg/mL: read-out: % α-Amylase Inhibition Mean ± SEM; for IC50: linear regression of % inhibition vs concentration
T1 construct: purchased Sigma Aldrich (Darmstadt, Germany); host or cells: porcine pancreas
T1 sequence (P00690 16-511): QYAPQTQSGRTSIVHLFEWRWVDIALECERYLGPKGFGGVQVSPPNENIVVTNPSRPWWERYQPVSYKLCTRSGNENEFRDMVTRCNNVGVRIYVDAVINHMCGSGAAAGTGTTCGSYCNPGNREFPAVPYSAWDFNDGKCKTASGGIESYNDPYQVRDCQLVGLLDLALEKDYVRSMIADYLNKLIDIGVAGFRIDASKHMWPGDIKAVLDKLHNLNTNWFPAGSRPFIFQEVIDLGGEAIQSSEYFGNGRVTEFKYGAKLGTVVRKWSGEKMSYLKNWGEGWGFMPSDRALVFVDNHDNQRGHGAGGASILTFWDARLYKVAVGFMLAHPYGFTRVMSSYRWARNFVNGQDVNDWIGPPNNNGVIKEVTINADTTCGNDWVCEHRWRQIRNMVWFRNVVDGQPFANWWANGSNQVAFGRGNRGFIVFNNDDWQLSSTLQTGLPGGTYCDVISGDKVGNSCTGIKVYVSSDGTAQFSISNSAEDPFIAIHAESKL
Method: The α-amylase inhibition activity of morin was assessed using 3, 5-dinitrosalicylic acid (DNSA) assay. Morin, phloroglucinol, and 1-hexyl benzene were dissolved in mixture of 10% DMSO, 0.02M Na2HPO4/NaH2PO4 buffer, and 0.006M NaCl (pH 6.9) and finally dilutions (31.05, 62.5, 125, 250, 500 and 1000 µg/mL) were prepared. In total, 200 μL α-amylase (2 units/mL) was mixed with 200 μL morin and incubated at 30 °C for 10 min. After that, 200 μL starch (1%) was added to each serial dilution and incubated for 3 min. To stop the reaction 200 μL sodium potassium tartrate tetrahydrate reagent, 2M NaOH, and […] DNSA (96mM) reagent were added to the reaction mixture. The reaction mixtures were boiled for 10 min at 85–90 °C in a water bath. After cooling the mixture was diluted with 5mL distilled water and finally at 540 nm absorbance was recorded. A blank solution was prepared containing only isolated compound morin but no enzyme. […] The α-amylase enzyme inhibitory activity was calculated by the following Equation (2): (2) % α − amylase Inhibition =control absorbance−sample absorbance/control absorbance×100
(§1) All the in vitro and in vivo experiments were analyzed in three replicates and determined as mean ± SEM. Student’s t-test and one way ANOVA followed by Dunnett’s post hoc multiple comparison test was used. p ≤ 0.05 were considered as significant. Linear regression analysis was used to calculate the IC50 value for % DPPH, ABTS, α-amylase, and α-glucosidase inhibition against the different concentrations of the test samples by means of Excel program 2007.

[3] = DPPH free radical scavenging assay; assay type: biochemical; settings: 125 µg/mL
[4] = DPPH free radical scavenging assay; assay type: biochemical; settings: for DPPH IC50: linear regression of % scavenging vs concentration
Method: According to the Brand-Williams assay DPPH (2, 2-diphenyl-1-picrylhydrazyl) free radical scavenging activity of morin was determined. DPPH and compounds stock solutions (1 mg/mL) were prepared in 100 mL methanol with serial dilutions of […], 62.5, 250, 500, and 1000 µg/mL. After that, 0.1 mL morin was mixed with 3.0 mL DPPH solution and incubated at 23 °C for 30 min. Standard ascorbic acid solution was also prepared in the same way using as a positive control. Finally, absorbance was measured at 517 nm via UV spectrophotometer. Results were taken in a set of three experiments and represented as mean ± SEM. Percent free radicals scavenging potential was calculated according to the following Equation (1): (1) % Free radicals Scavenging potential = Blank sample absorbance−sample absorbance/Blank sample absorbance×100
as §1

[5] = system: STZ-induced diabetic rats; assay: Pancreas histopathological assessment (H & E); assay type: in vivo, Sprague Dawley adult albino rats
Excerpt: For histopathological assessment, the pancreas tissues were removed immediately and washed with cold saline solution to remove the blood. Finally, the pancreas portions were fixed in 10% formalin, dehydrated with mixture of ethanol/xylene and then fixed with paraffin. Staining of tissue slides was done with hematoxylin and eosin (H & E) dye through automatic slide stainer (Sakura Tissue-Tek® DRS™ 2000; Tokyo, Japan). According to the reported assay, the stained slides were observed under microscope to see any variation in pancreatic tissue architecture of STZ-induced diabetic group and treated (glibenclamide/morin) groups.

Row | SMILES | zone of inhibition at 100 µg/mL [1] [mm] | Zone of Inhibition [1] [mm] | inhibition at 31.05 µg/mL [2] [%] | inhibition at 62.5 µg/mL [2] [%] | inhibition at 125 µg/mL [2] [%] | inhibition at 250 µg/mL [2] [%] | inhibition at 500 µg/mL [2] [%] | inhibition at 1000 µg/mL [2] [%] | IC50 [2] [µM] | % DPPH Scavenging Mean ± SEM [3] [%] | % DPPH Scavenging Mean ± SEM ([4]; 31.05 µg/mL) [%] | % DPPH Scavenging Mean ± SEM ([4]; 62.5 µg/mL) [%] | % DPPH Scavenging Mean ± SEM ([4]; 250 µg/mL) [%] | % DPPH Scavenging Mean ± SEM ([4]; 500 µg/mL) | % DPPH Scavenging Mean ± SEM ([4]; 1000 µg/mL) | DPPH IC50 [4] [µg/mL] | pancreas histopathology ([5]; morin 2, 5 mg/kg orally) | pancreas histopathology ([5]; morin 10, 15 mg/kg orally) | pancreas histopathology ([5]; morin 30, 50 mg/kg orally)
1 | CCCCCCc1ccccc1 [1-Hexyl benzene, 1-hexylbenzene] | 7.4 ± 1.2 | 7.4 ± 1.2 | 22 ± 1.1 | 28 ± 2.1 | 37 ± 1.4 | 44 ± 0.5 | 49 ± 2.1 | 55 ± 1.5 | 709 | 40 ± 1.1 | 28 ± 1.1 | 35 ± 0.4 | 46 ± 0.5 | 53 ± 2.1 % | 59 ± 1.5 % | 118 |  |  | 
2 | O=c1c(O)c(-c2ccc(O)cc2O)oc2cc(O)cc(O)c12 [Morin, 2-(2,4-Dihydroxyphenyl)-3,5,7-trihydroxychromen-4-one] | 16 ± 1.2 | 16 ± 1.2 | 37 ± 1.1 | 44 ± 2.1 | 54 ± 1.4 | 60 ± 0.5 | 67 ± 1.4 | 75 ± 1.5 | 182 | 68 ± 1.2 | 54 ± 0.5 | 59 ± 1.3 | 76 ± 1.0 | 83 ± 0.5 ^ns % | 88± 1.1% and 88 ± 1.1 ^ns % | 37 | did not show restoration of pancreatic tissue | significant dose dependent improvement in cellular architecture | normal histological pattern of pancreas
3 | Oc1cc(O)cc(O)c1 [Phloroglucinol, Benzene-1,3,5-triol] | 12 ± 1.1 | 12 ± 1.1 | 29 ± 1 | 32 ± 1.4 | 39 ± 1.5 | 42 ± 0.4 | 55 ± 1.1 | 63 ± 0.5 | 753 | 40 ± 0.5 | 32 ± 0.5 | 36 ± 1.1 | 51 ± 1.0 | 57 ± 1.0 % | 67 ± 0.4 % | 105 |  |  | 
